Source: patent US20210308034A1, “PREBIOTIC COMPOSITIONS AND METHODS FOR MAINTAINING A HEALTHY SKIN MICROBIOTA” (KIMBERLY-CLARK WORLDWIDE, INC., priority 2018, published 2021)

Columns and labels:
Type in all cases: cell-based
[1] = test system: Micrococcus luteus (ATCC 49732); experiment: Carbohydrate Screening Test Method (Biolog phenotype microarray), Bacteria Code D; details: Commensal; carbon microarray plate, OD 600 nm, 36 hr, 33° C.; positive = more than 0.05 OD units above zero; blank cell = not utilized
Description: (§1) After creating desired ratios of various commensal skin bacteria in a healthy skin microbiome, 188 different carbohydrate sources were screened as the next step in determining potential prospects for skin microbiota balancing agents. The screening process was set up to determine which carbohydrate sources promoted commensal and/or pathogenic bacteria as well as to obtain individual and combinations of carbohydrate sources that could serve as microbiota balancing agents that can support or maintain the healthy proportions of commensal skin bacteria of Corynebacterium, Staphylococcus, and Micrococcus. The screening was conducted utilizing Biolog phenotype microarray plates (Hayward, Calif.). Table 1 provides a coded list of the commensal and pathogenic skin bacteria that the carbohydrates were screened against.
(§2) Table 2 provides the results of screening various carbohydrate sources against the commensal and pathogenic bacteria codes listed in Table 1. The Bacteria Codes B, D, E, I, and J are commensal bacteria and are shaded in Table 2 for references purposes. The bacteria codes were each placed in a carbon microarray plate and screened through the Carbohydrate Screening Test Method, as described in the Test Methods section herein. If a particular bacteria code utilized a specific carbohydrate source as described in the Carbohydrate Screening Test Method, then the corresponding cell in Table 2 was marked with a Y (short for “Yes”). […] Many of the carbohydrate sources were utilized by both commensal and pathogenic bacteria, and as such, would not provide an advantage for selective growth of the commensal bacteria. However, some of the carbohydrate sources were only used by commensal bacteria and were identified for further testing as described herein.
(§3) The study employed 10 representative skin bacteria; Staphylococcus epidermidis ATCC 14990, Staphylococcus epidermidis M23864:W2, Staphylococcus aureus ATCC 6538, Staphylococcus aureus ATCC 25904 (Newman), Pseudomonas aeruginosa ATCC 9027, Micrococcus luteus ATCC […], Micrococcus luteus SK58, Klebsiella pneumoniae ATCC BAA-2146, Corynebacterium amycolatum SK46, and Corynebacterium minutissimum ATCC 23348. Cultures were started from freezer bead stocks by placing a single bead into 20 mL of tryptic soy broth (TSB) for all organisms except C. amycolatum SK46 and C. minutissimum ATCC 23348, which were placed into brain heart infusion (BHI) broth. Cultures were grown for about 24 hr at 37° C. except M. luteus ATCC 49732 and M. luteus SK58, which were grown at 30° C. A passage of the culture was made using a sterile swab and streaked onto two M9*2 agar plates to prepare the incubated culture for the phenotype microarray pate according to Table 4. Plates were incubated for about 24 hr at 37° C. except for M. luteus ATCC 49732 and M. luteus SK58, which were incubated at 30° C. for 24 hr.
(§4) All cultures were harvested and washed before inoculation into the carbon microarray plate (BiOLOG, Hayward Calif.), with Biolog Plates PM1 and PM2 each having a source definition of Carbon. The bacteria on the M9*2 agar was suspended via agitation with an inoculating loop in 1 mL of M9*1 media for collection in a 1.7 mL micro centrifuge tube, as noted in Table 4. The bacteria was suspended again in M9*1 media, agitated, and collected into the same 1.7 mL microcentrifuge tube used in the previous step. The tube was centrifuged for 5 minutes at 4,000×G, supernatant decanted, the pellet was resuspended in 1 mL of M9*1 media, and vortex. This washing process was repeated for a total of 4 times.
(§5) A tenfold dilution in M9*1 media was performed using 1 mL of the washed bacterial culture. Of the tenfold dilution 200 μL was placed in an untreated 96-well plate (Falcon, Pasadena Tx.) for an initial optical density (OD) reading at a wavelength of 600 nm. The OD was used to correlate to colony forming units (CFU) per milliliter by using linear regression lines for each organism. […]

[2] = test system: Staphylococcus epidermidis (ATCC 14990); experiment: Carbohydrate Screening Test Method (Biolog phenotype microarray), Bacteria Code I; details: Commensal; carbon microarray plate, OD 600 nm, 36 hr, 33° C.; positive = more than 0.05 OD units above zero; blank cell = not utilized
Description: as §1, §2, §3, §4, §5

[3] = test system: Staphylococcus epidermidis (M23864:W2); experiment: Carbohydrate Screening Test Method (Biolog phenotype microarray), Bacteria Code J; details: Commensal; carbon microarray plate, OD 600 nm, 36 hr, 33° C.; positive = more than 0.05 OD units above zero; blank cell = not utilized
[4] = test system: Corynebacterium jeikum (ATCC 33033); experiment: Carbohydrate Screening Test Method (Biolog phenotype microarray), Bacteria Code B; details: Commensal; carbon microarray plate, OD 600 nm, 36 hr, 33° C.; positive = more than 0.05 OD units above zero; blank cell = not utilized
In short: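 Strain from M9*2 agar was suspended in M9*1 medium, washed and inoculated into Biolog PM1/PM2 carbon plates. Carbohydrate use was scored yes/no, and growth rate and maximum yield were derived with GrowthRates 2.1, with max yields used for commensal ratios.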

[5] = test system: Micrococcus luteus (SK58); experiment: Carbohydrate Screening Test Method (Biolog phenotype microarray), Bacteria Code E; details: Commensal; carbon microarray plate, OD 600 nm, 36 hr, 33° C.; positive = more than 0.05 OD units above zero; blank cell = not utilized
In short: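 Each commensal strain grown in Biolog carbon phenotype microarray plates with single carbohydrate sources. Growth curves fitted with GrowthRates 2.1 to give growth rate and maximum yield. Max yields used to calculate predicted co-culture ratios between Corynebacterium, Staphylococcus and Micrococcus, compared with desired ratios of 1.3, 1.4 and 1.1.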

[6] = test system: Staphylococcus aureus (ATCC 6538); experiment: Carbohydrate Screening Test Method (Biolog phenotype microarray), Bacteria Code G; details: Pathogenic; carbon microarray plate, OD 600 nm, 36 hr, 33° C.; positive = more than 0.05 OD units above zero; blank cell = not utilized
Description: as §1, §2, §3, §4, §5

[7] = test system: Staphylococcus aureus (ATCC 25904) (Newman); experiment: Carbohydrate Screening Test Method (Biolog phenotype microarray), Bacteria Code H; details: Pathogenic; carbon microarray plate, OD 600 nm, 36 hr, 33° C.; positive = more than 0.05 OD units above zero; blank cell = not utilized
Description: as §1, §2, §3, §4, §5

[8] = test system: Corynebacterium minutissimum (ATCC 23348); experiment: Carbohydrate Screening Test Method (Biolog phenotype microarray), Bacteria Code A; details: Pathogenic; carbon microarray plate, OD 600 nm, 36 hr, 33° C.; positive = more than 0.05 OD units above zero; blank cell = not utilized
Description: as §1, §2, §3, §4, §5

[9] = test system: Klebsiella pneumoniae (ATCC BAA-2146); details: Pathogenic; carbon microarray plate, OD 600 nm, 36 hr, 33° C.; positive = more than 0.05 OD units above zero; blank cell = not utilized
[10] = test system: Pseudomonas aeruginosa (ATCC 9027); details: Pathogenic; carbon microarray plate, OD 600 nm, 36 hr, 33° C.; positive = more than 0.05 OD units above zero; blank cell = not utilized
In short: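 Carbon-source utilisation screen on Biolog PM1/PM2 plates: strain grown in TSB then on M9*2 agar, each ~24 h at 37 °C, washed four times in M9*1 and diluted tenfold. OD600 correlated to CFU/mL; each carbohydrate scored Yes when utilised.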

C/C(=C/C(=O)O)C(=O)O [Citraconic Acid]
Y: Carbohydrate Screening Results, Bacteria Code D [1] | Carbohydrate Screening Results, Bacteria Code I [2] | Carbohydrate Screening Results, Bacteria Code J [3]

O=C(CO)[C@@H](O)[C@H](O)[C@H](O)COP(=O)(O)O [D-Fructose-6-Phosphate]
Y: Carbohydrate Screening Results, Bacteria Code B [4] | Carbohydrate Screening Results, Bacteria Code E [5] | Carbohydrate Screening Results, Bacteria Code G [6] | Carbohydrate Screening Results, Bacteria Code H [7] | Carbohydrate Screening Results, Bacteria Code J [3]

Maltotriose
Y: Carbohydrate Screening Results, Bacteria Code A [8] | Carbohydrate Screening Results, Bacteria Code B [4] | Carbohydrate Screening Results, Bacteria Code C [9] | Carbohydrate Screening Results, Bacteria Code E [5] | Carbohydrate Screening Results, Bacteria Code F [10] | Carbohydrate Screening Results, Bacteria Code H [7] | Carbohydrate Screening Results, Bacteria Code I [2] | Carbohydrate Screening Results, Bacteria Code J [3]

O=C(O)CCC(=O)O [Succinic Acid]
Y: Carbohydrate Screening Results, Bacteria Code A [8]

O=C[C@H](O)[C@@H](O)[C@H](O)[C@H](O)COP(=O)(O)O [D-Glucose-6-Phosphate]
Y: Carbohydrate Screening Results, Bacteria Code C [9] | Carbohydrate Screening Results, Bacteria Code E [5] | Carbohydrate Screening Results, Bacteria Code F [10] | Carbohydrate Screening Results, Bacteria Code G [6] | Carbohydrate Screening Results, Bacteria Code I [2] | Carbohydrate Screening Results, Bacteria Code J [3]

CC(=O)C(=O)O [Pyruvic Acid]
Y: Carbohydrate Screening Results, Bacteria Code B [4] | Carbohydrate Screening Results, Bacteria Code D [1] | Carbohydrate Screening Results, Bacteria Code F [10] | Carbohydrate Screening Results, Bacteria Code I [2] | Carbohydrate Screening Results, Bacteria Code J [3]

OC[C@H]1O[C@H](O[C@H]2O[C@H](CO)[C@@H](O)[C@H](O)[C@H]2O)[C@H](O)[C@@H](O)[C@@H]1O [D-Trehalose]
Y: Carbohydrate Screening Results, Bacteria Code B [4] | Carbohydrate Screening Results, Bacteria Code C [9] | Carbohydrate Screening Results, Bacteria Code D [1] | Carbohydrate Screening Results, Bacteria Code E [5] | Carbohydrate Screening Results, Bacteria Code F [10] | Carbohydrate Screening Results, Bacteria Code G [6] | Carbohydrate Screening Results, Bacteria Code H [7]

OC[C@H]1O[C@@H]2O[C@H]3[C@H](O)[C@@H](O)[C@@H](O[C@H]4[C@H](O)[C@@H](O)[C@@H](O[C@H]5[C@H](O)[C@@H](O)[C@@H](O[C@H]6[C@H](O)[C@@H](O)[C@@H](O[C@H]7[C@H](O)[C@@H](O)[C@@H](O[C@H]8[C@H](O)[C@@H](O)[C@@H](O[C@H]1[C@H](O)[C@H]2O)O[C@@H]8CO)O[C@@H]7CO)O[C@@H]6CO)O[C@@H]5CO)O[C@@H]4CO)O[C@@H]3CO [β-Cyclodextrin]
Y: Carbohydrate Screening Results, Bacteria Code D [1] | Carbohydrate Screening Results, Bacteria Code I [2] | Carbohydrate Screening Results, Bacteria Code J [3]

C[C@H](O)C(=O)O [L-Lactic Acid]
Y: Carbohydrate Screening Results, Bacteria Code A [8] | Carbohydrate Screening Results, Bacteria Code B [4] | Carbohydrate Screening Results, Bacteria Code E [5] | Carbohydrate Screening Results, Bacteria Code I [2]

CO[C@@H]1O[C@H](CO)[C@@H](O)[C@H](O)[C@H]1O [β-Methyl-D-Glucoside]
Y: Carbohydrate Screening Results, Bacteria Code B [4] | Carbohydrate Screening Results, Bacteria Code C [9] | Carbohydrate Screening Results, Bacteria Code E [5] | Carbohydrate Screening Results, Bacteria Code H [7]

Cc1cn([C@H]2C[C@H](O)[C@@H](CO)O2)c(=O)[nH]c1=O [Thymidine]
Y: Carbohydrate Screening Results, Bacteria Code A [8] | Carbohydrate Screening Results, Bacteria Code B [4] | Carbohydrate Screening Results, Bacteria Code E [5]

O=C(O)[C@@H](O)[C@@H](O)[C@H](O)[C@@H](O)C(=O)O [D-Saccharic Acid]
Y: Carbohydrate Screening Results, Bacteria Code A [8]

OC[C@@H](O)[C@@H](O)[C@H](O)[C@H](O)CO [D-Mannitol]
Y: Carbohydrate Screening Results, Bacteria Code B [4] | Carbohydrate Screening Results, Bacteria Code C [9] | Carbohydrate Screening Results, Bacteria Code E [5] | Carbohydrate Screening Results, Bacteria Code F [10] | Carbohydrate Screening Results, Bacteria Code G [6] | Carbohydrate Screening Results, Bacteria Code H [7]

CC(N)=O [Acetamide]
Y: Carbohydrate Screening Results, Bacteria Code A [8]

CC(=O)N[C@H]1C(O)O[C@H](CO)[C@@H](O)[C@@H]1O (stereo partly drawn) [N-Acetyl-D-Glucosamine]
Y: Carbohydrate Screening Results, Bacteria Code A [8] | Carbohydrate Screening Results, Bacteria Code B [4] | Carbohydrate Screening Results, Bacteria Code E [5]

OC[C@H]1O[C@@H](n2cnc3c(O)ncnc32)[C@H](O)[C@@H]1O [Inosine]
Y: Carbohydrate Screening Results, Bacteria Code B [4] | Carbohydrate Screening Results, Bacteria Code C [9] | Carbohydrate Screening Results, Bacteria Code E [5] | Carbohydrate Screening Results, Bacteria Code H [7]

OC[C@H]1O[C@H](O[C@H]2[C@H](O)[C@@H](O)[C@H](O)O[C@@H]2CO)[C@H](O)[C@@H](O)[C@@H]1O [Maltose]
Y: Carbohydrate Screening Results, Bacteria Code B [4] | Carbohydrate Screening Results, Bacteria Code C [9] | Carbohydrate Screening Results, Bacteria Code E [5] | Carbohydrate Screening Results, Bacteria Code F [10] | Carbohydrate Screening Results, Bacteria Code H [7] | Carbohydrate Screening Results, Bacteria Code I [2] | Carbohydrate Screening Results, Bacteria Code J [3]

CSCC[C@H](N)C(=O)O [L-Methionine]
Y: Carbohydrate Screening Results, Bacteria Code A [8]

OC[C@H]1O[C@@](CO)(O[C@H]2O[C@H](CO)[C@@H](O)[C@H](O)[C@H]2O)[C@@H](O)[C@@H]1O [Sucrose]
Y: Carbohydrate Screening Results, Bacteria Code A [8] | Carbohydrate Screening Results, Bacteria Code B [4] | Carbohydrate Screening Results, Bacteria Code C [9] | Carbohydrate Screening Results, Bacteria Code E [5] | Carbohydrate Screening Results, Bacteria Code F [10] | Carbohydrate Screening Results, Bacteria Code G [6] | Carbohydrate Screening Results, Bacteria Code J [3]
